Data: patent US20240317777A1, “NOVEL MACROCYCLIC AMINOPYRAZOLE COMPOUNDS AS CDK2 INHIBITORS” (Accutar Biotechnology Inc., priority 2023, published 2024)
Like-named read-outs stand apart in the source and are kept apart here.

How the values were obtained:
CDK4-CYCLIN D1 = CDK4-CYCLIN D1 (Homo sapiens, UniProt P11802); test: CDK protein kinase inhibition by ADP-Glo assay, CDK4-CYCLIN D1; type: biochemical; settings: for IC50: ADP-Glo, 1000 μM ATP, read-out: CDK4-CYCLIND1, IC50; for CDK2 Fold selectivity, CDK4: CDK2 versus CDK4
Procedure, shortened: (§1)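 Human CDK/cyclin complexes with peptide substrate, 1000 μM ATP, 5 mM MgCl2 in 100 mM HEPES pH 7.5, 0.1% BSA, 0.01% Triton X-100, 1 mM DTT, 1% DMSO, incubated at 22° C. ADP formed was detected by ADP-Glo luminescence after quench.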

CDK1-CYCLIN B = CDK1-CYCLIN B (Homo sapiens, UniProt P06493); test: CDK protein kinase inhibition by ADP-Glo assay, CDK1-CYCLIN B; type: biochemical; settings: for IC50: ADP-Glo, 1000 μM ATP, read-out: CDK1-CYCLINB, IC50; for CDK2 Fold selectivity, CDK1: CDK2 versus CDK1
Procedure, shortened: as §1

CDK6-CYCLIN D3 = CDK6-CYCLIN D3 (Homo sapiens, UniProt Q00534); test: CDK protein kinase inhibition by ADP-Glo assay, CDK6-CYCLIN D3; type: biochemical; settings: for IC50: ADP-Glo, 1000 μM ATP, read-out: CDK6-CYCLIND3, IC50; for CDK2 Fold selectivity, CDK6: CDK2 versus CDK6
Procedure, shortened: as §1

[1] = tested on: Phospho-Rb (Ser807/811) in OVCAR3 cells; test: Phospho-Rb expression inhibition in OVCAR3 cells quantified by In Cell Western; type: cell-based; settings: Homo sapiens, OVCAR-3, 24 hours, read-out: OVCAR-3 pRb IC50
Procedure, shortened: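 In-cell western: after 24 h compound exposure at 37° C, fixed OVCAR3 cells co-stained for pRb Ser807/811 (800 nm channel) and total Rb (680 nm channel), imaged by LI-COR Odyssey.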

[2] = tested on: CCNE1-amplified OVCAR3 cells; test: Cell growth inhibition of CCNE1-amplified OVCAR3 cells (CellTiter-Glo); type: cell-based; settings: Homo sapiens, OVCAR-3, 144 h, 6 days
Procedure, shortened: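 Growth read-out was CellTiter-Glo luminescence, taken after 10 min at room temperature at the end of a 6-day compound exposure at 37 °C. Compounds were diluted from DMSO stocks across various concentrations.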

CCNE1-normal SKOV3 cells = test: Cell growth inhibition of CCNE1-normal SKOV3 cells (CellTiter-Glo); type: cell-based; settings: Homo sapiens, SK-OV-3, 144 h, 6 days
Procedure, shortened: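 Growth was measured by CellTiter-Glo luminescence after 6 days' compound exposure at 37 °C. Cells were plated one day before dosing at 1000 per well in medium with 10% FBS, and compounds were diluted from DMSO stocks.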

CDK2-CYCLIN E1 = CDK2-CYCLIN E1 (Homo sapiens, UniProt P24941); test: CDK protein kinase inhibition by ADP-Glo assay, CDK2-CYCLIN E1; type: biochemical; settings: ADP-Glo, 1000 μM ATP, read-out: CDK2-CYCLINE, IC50
Procedure, shortened: as §1

CDK9-CYCLIN T1 = CDK9-CYCLIN T1 (Homo sapiens, UniProt P50750); test: CDK protein kinase inhibition by ADP-Glo assay, CDK9-CYCLIN T1; type: biochemical; settings: for IC50: ADP-Glo, 1000 μM ATP, read-out: CDK9-CYCLINT1, IC50; for CDK2 Fold selectivity, CDK9: CDK2 versus CDK9
Procedure, shortened: as §1

Chain of CDK4-CYCLIN D1 (P11802 whole entry): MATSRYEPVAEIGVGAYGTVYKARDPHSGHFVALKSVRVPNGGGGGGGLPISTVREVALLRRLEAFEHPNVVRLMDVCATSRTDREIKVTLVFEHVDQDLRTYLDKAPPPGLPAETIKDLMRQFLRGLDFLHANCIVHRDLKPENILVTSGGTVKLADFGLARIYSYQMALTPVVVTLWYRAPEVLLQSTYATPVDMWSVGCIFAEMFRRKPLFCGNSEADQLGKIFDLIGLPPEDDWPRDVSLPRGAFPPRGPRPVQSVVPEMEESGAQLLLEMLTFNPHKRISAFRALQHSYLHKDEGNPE
Chain of CDK4-CYCLIN D1 (P24385 whole entry partner): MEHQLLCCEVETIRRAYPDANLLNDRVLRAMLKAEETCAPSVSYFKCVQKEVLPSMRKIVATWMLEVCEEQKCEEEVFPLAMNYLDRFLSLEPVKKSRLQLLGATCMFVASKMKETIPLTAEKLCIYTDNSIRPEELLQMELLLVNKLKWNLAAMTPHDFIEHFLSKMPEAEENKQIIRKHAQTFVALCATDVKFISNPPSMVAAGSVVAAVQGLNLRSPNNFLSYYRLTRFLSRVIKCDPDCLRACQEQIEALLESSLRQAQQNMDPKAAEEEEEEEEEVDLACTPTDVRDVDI
Chain of CDK6-CYCLIN D3 (Q00534 whole entry): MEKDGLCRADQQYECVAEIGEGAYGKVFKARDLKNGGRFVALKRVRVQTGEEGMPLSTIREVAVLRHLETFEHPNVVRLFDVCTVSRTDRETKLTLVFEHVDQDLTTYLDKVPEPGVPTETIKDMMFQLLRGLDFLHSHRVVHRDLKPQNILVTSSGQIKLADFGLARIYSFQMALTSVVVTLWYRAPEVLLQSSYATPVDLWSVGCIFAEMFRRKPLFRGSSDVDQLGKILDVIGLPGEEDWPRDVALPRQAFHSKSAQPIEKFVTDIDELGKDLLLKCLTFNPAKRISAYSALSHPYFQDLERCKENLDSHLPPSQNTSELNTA
Chain of CDK6-CYCLIN D3 (P30281 whole entry partner): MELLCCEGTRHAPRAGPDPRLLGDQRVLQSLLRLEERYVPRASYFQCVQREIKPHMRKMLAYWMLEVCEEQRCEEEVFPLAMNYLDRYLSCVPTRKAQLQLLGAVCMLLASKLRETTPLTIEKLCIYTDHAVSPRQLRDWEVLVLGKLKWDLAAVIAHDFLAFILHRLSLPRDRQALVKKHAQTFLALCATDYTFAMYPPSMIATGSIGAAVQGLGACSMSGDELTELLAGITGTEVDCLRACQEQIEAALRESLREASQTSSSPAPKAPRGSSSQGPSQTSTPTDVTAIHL
Chain of CDK1-CYCLIN B (P06493 whole entry): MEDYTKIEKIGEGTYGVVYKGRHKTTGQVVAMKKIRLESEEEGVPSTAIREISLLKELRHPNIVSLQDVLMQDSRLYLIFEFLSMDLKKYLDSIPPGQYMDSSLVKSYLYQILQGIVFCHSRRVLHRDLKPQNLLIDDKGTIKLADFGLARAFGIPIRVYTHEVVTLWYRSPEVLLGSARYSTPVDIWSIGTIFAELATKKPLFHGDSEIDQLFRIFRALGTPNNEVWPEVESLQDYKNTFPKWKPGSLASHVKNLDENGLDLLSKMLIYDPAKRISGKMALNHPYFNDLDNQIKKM
Chain of CDK1-CYCLIN B (P14635 whole entry partner): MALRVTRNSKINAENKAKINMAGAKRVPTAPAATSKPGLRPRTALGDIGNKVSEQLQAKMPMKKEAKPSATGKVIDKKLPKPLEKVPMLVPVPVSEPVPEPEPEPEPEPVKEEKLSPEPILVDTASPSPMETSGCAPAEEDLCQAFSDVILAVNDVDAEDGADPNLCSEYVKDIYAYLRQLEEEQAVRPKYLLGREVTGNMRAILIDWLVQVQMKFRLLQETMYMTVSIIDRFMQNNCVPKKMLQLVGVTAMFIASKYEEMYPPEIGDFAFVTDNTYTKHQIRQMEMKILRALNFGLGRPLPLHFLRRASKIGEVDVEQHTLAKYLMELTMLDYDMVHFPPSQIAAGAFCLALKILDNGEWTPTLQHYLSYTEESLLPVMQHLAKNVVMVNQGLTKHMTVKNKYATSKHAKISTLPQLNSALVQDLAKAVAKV
Chain of CDK9-CYCLIN T1 (P50750 whole entry): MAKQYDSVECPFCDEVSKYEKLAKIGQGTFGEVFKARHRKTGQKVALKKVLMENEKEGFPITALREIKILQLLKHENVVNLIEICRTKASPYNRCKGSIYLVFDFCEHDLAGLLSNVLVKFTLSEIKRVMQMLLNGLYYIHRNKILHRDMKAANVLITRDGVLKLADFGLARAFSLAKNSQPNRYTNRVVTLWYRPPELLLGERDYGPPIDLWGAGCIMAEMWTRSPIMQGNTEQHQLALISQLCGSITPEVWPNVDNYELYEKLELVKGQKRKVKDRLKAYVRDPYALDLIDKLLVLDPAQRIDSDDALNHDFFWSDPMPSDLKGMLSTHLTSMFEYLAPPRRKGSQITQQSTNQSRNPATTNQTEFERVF
Chain of CDK9-CYCLIN T1 (O60563 whole entry partner): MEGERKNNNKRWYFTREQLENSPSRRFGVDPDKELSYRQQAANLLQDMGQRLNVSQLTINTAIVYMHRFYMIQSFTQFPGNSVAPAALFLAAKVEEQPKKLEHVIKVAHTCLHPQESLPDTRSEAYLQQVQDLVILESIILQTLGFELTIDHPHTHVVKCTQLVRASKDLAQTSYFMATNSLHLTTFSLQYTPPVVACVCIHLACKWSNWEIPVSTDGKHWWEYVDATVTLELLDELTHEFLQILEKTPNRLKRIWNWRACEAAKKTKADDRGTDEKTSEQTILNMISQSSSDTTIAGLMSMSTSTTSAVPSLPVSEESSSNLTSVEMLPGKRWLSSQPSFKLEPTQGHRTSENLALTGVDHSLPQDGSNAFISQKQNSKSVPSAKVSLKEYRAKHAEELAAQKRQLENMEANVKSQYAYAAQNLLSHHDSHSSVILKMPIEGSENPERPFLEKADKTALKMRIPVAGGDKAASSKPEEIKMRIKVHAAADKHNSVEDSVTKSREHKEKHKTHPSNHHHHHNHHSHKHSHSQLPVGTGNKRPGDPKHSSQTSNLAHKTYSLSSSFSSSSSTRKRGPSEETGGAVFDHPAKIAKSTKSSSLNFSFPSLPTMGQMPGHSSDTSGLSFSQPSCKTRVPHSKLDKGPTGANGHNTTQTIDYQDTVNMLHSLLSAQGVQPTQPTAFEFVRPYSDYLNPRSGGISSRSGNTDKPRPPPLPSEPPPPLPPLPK

Compound | IC50 [1] [nM] | IC50 [2] [nM] | IC50 (CDK4-CYCLIN D1; Table 21) [nM] | CDK2 Fold selectivity, CDK4 (CDK4-CYCLIN D1; Table 22) | IC50 (CDK1-CYCLIN B; Table 21) [nM] | CDK2 Fold selectivity, CDK1 (CDK1-CYCLIN B; Table 22) | IC50 (CDK6-CYCLIN D3; Table 21) [nM] | CDK2 Fold selectivity, CDK6 (CDK6-CYCLIN D3; Table 22) | IC50 (CDK2-CYCLIN E1; Table 21) [nM] | IC50 (CDK9-CYCLIN T1; Table 21) [nM] | CDK2 Fold selectivity, CDK9 (CDK9-CYCLIN T1; Table 22) | IC50 (CDK4-CYCLIN D1; Table 25) [nM] | CDK2 Fold selectivity, CDK4 (CDK4-CYCLIN D1; Table 26) | IC50 (CDK1-CYCLIN B; Table 25) [nM] | CDK2 Fold selectivity, CDK1 (CDK1-CYCLIN B; Table 26) | IC50 (CDK6-CYCLIN D3; Table 25) [nM] | CDK2 Fold selectivity, CDK6 (CDK6-CYCLIN D3; Table 26) | IC50 (CDK2-CYCLIN E1; Table 25) [nM] | IC50 (CDK9-CYCLIN T1; Table 25) [nM] | IC50 (CCNE1-normal SKOV3 cells) [nM] | other results
C[C@@H]1CC[C@H](C)Oc2cncc(c2)Nc2cc(n[nH]2)[C@H]2CC[C@H](C2)OC(=O)N1 [Compound 152, (1^1S,1^3R,6S,9R,Z)-6,9-dimethyl-2^1H-5,12-dioxa-3,10-diaza-4(3,5)-pyridina-2(3,5)-pyrazola-1(1,3)-cyclopentanacyclododecaphan-11-one] | 2 to 10 | 10 to 50 | 50 to 100 | D (D, >20 and ≤50) | 10 to 50 | E (E, <20) | 50 to 100 | E (E, <20) | ≤ 10 | 100 to 500 | D (D, >20 and ≤50) |  |  |  |  |  |  |  |  | 250 to 1250 | 
C[C@H]1CCCNC(=O)O[C@@H]2CC[C@@H](C2)c2cc([nH]n2)Nc2cnnc(c2)O1 [Compound 155, (1^1S,1^3R,6S,Z)-6-methyl-2^1H-5,12-dioxa-3,10-diaza-4(5,3)-pyridazina-2(3,5)-pyrazola-1(1,3)-cyclopentanacyclododecaphan-11-one] | 10 to 50 | 50 to 250 |  |  |  |  |  |  |  |  |  | 100 to 500 | D (D, >20 and ≤50) | 10 to 50 | E (E, <20) | 100 to 500 | D (D, >20 and ≤50) | ≤ 10 | > 500 | > 1250 | CDK2 Fold selectivity, CDK9 (CDK9-CYCLIN T1; Table 26): B (B, >100 and ≤500)
O=C1NCCCO[C@@H](C(F)(F)F)c2cc(ccn2)Nc2cc(n[nH]2)[C@H]2CC[C@H](C2)O1 [Compound 161, (1^1S,1^3R,5R,Z)-5-(trifluoromethyl)-2^1H-6,12-dioxa-3,10-diaza-4(4,2)-pyridina-2(3,5)-pyrazola-1(1,3)-cyclopentanacyclododecaphan-11-one] | ≤ 2 | ≤ 2 | 10 to 50 | E (E, <20) | ≤ 10 | E (E, <20) | 10 to 50 | E (E, <20) | ≤ 10 | 10 to 50 | E (E, <20) |  |  |  |  |  |  |  |  | 50 to 250 | 
O=C1NC2CC(/C=C/c3cc(ccn3)Nc3cc(n[nH]3)[C@H]3CC[C@H](C3)O1)C2 [Compound 172, (1^1S,1^3R,2^4Z,7^1R,7^3S,5E)-2^1H-10-oxa-3,8-diaza-4(4,2)-pyridina-2(3,5)-pyrazola-1(1,3)-cyclopentana-7(1,3)-cyclobutanacyclodecaphan-5-en-9-one] | ≤ 2 | 2 to 10 |  |  |  |  |  |  |  |  |  | ≤ 10 | E (E, <20) | ≤ 10 | E (E, <20) | 10 to 50 | E (E, <20) | ≤ 10 | ≤ 10 | 10 to 50 | CDK2 Fold selectivity, CDK9 (CDK9-CYCLIN T1; Table 26): E (E, <20)

The next lines start with results.

IC50 [1] [nM] | IC50 [2] [nM] | IC50 (CDK4-CYCLIN D1; Table 21) [nM] | CDK2 Fold selectivity, CDK4 (CDK4-CYCLIN D1; Table 22) | IC50 (CDK1-CYCLIN B; Table 21) [nM] | CDK2 Fold selectivity, CDK1 (CDK1-CYCLIN B; Table 22) | IC50 (CDK6-CYCLIN D3; Table 21) [nM] | CDK2 Fold selectivity, CDK6 (CDK6-CYCLIN D3; Table 22) | IC50 (CDK2-CYCLIN E1; Table 21) [nM] | IC50 (CDK9-CYCLIN T1; Table 21) [nM] | CDK2 Fold selectivity, CDK9 (CDK9-CYCLIN T1; Table 22) | IC50 (CDK4-CYCLIN D1; Table 25) [nM] | CDK2 Fold selectivity, CDK4 (CDK4-CYCLIN D1; Table 26) | IC50 (CDK1-CYCLIN B; Table 25) [nM] | CDK2 Fold selectivity, CDK1 (CDK1-CYCLIN B; Table 26) | IC50 (CDK6-CYCLIN D3; Table 25) [nM] | CDK2 Fold selectivity, CDK6 (CDK6-CYCLIN D3; Table 26) | IC50 (CDK2-CYCLIN E1; Table 25) [nM] | IC50 (CDK9-CYCLIN T1; Table 25) [nM] | Compound | IC50 (CCNE1-normal SKOV3 cells) [nM] | other results
10 to 50 | 10 to 50 |  |  |  |  |  |  |  |  |  |  |  |  |  |  |  |  |  | C[C@@H]1Oc2cncc(c2)Nc2cc(n[nH]2)[C@H]2CC[C@H](C2)OC(=O)N[C@H]2C[C@@H]1C2 [Compound 149, (1^1S,1^3R,7^1S,7^3R,6S,Z)-6-methyl-2^1H-5,10-dioxa-3,8-diaza-4(3,5)-pyridina-2(3,5)-pyrazola-1(1,3)-cyclopentana-7(1,3)-cyclobutanacyclodecaphan-9-one] | > 1250 | IC50 (CDK4-CYCLIN D1; Table 23): 100 to 500 nM; CDK2 Fold selectivity, CDK4 (CDK4-CYCLIN D1; Table 24): E (E, <20); IC50 (CDK1-CYCLIN B; Table 23): 100 to 500 nM; CDK2 Fold selectivity, CDK1 (CDK1-CYCLIN B; Table 24): E (E, <20); IC50 (CDK6-CYCLIN D3; Table 23): > 500 nM; CDK2 Fold selectivity, CDK6 (CDK6-CYCLIN D3; Table 24): D (D, >20 and ≤50); IC50 (CDK2-CYCLIN E1; Table 23): 10 to 50 nM; IC50 (CDK9-CYCLIN T1; Table 23): > 500 nM; CDK2 Fold selectivity, CDK9 (CDK9-CYCLIN T1; Table 24): C (C, >50 and ≤100)
2 to 10 | 2 to 10 | 100 to 500 | D (D, >20 and ≤50) | 10 to 50 | E (E, <20) | 50 to 100 | D (D, >20 and ≤50) | ≤ 10 | 100 to 500 | B (B, >100 and ≤500) |  |  |  |  |  |  |  |  | C[C@@H]1Oc2cncc(c2)Nc2cc(n[nH]2)[C@H]2CC[C@H](C2)OC(=O)N[C@H]2C[C@H]1C2 [Compound 150, (1^1S,1^3R,7^1R,7^3S,6S,Z)-6-methyl-2^1H-5,10-dioxa-3,8-diaza-4(3,5)-pyridina-2(3,5)-pyrazola-1(1,3)-cyclopentana-7(1,3)-cyclobutanacyclodecaphan-9-one] | 250 to 1250 | 
2 to 10 | 2 to 10 | 50 to 100 | D (D, >20 and ≤50) | ≤ 10 | E (E, <20) | 50 to 100 | D (D, >20 and ≤50) | ≤ 10 | 100 to 500 | D (D, >20 and ≤50) |  |  |  |  |  |  |  |  | C[C@H]1CC[C@H](C)Oc2cncc(c2)Nc2cc(n[nH]2)[C@H]2CC[C@H](C2)OC(=O)N1 [Compound 151, (1^1S,1^3R,6S,9S,Z)-6,9-dimethyl-2^1H-5,12-dioxa-3,10-diaza-4(3,5)-pyridina-2(3,5)-pyrazola-1(1,3)-cyclopentanacyclododecaphan-11-one] | 250 to 1250 | 
10 to 50 | 10 to 50 | 100 to 500 | D (D, >20 and ≤50) | 50 to 100 | E (E, <20) | 100 to 500 | D (D, >20 and ≤50) | ≤ 10 | 100 to 500 | C (C, >50 and ≤100) |  |  |  |  |  |  |  |  | C[C@H]1CCCNC(=O)O[C@@H]2CC[C@@H](C2)c2cc([nH]n2)Nc2cccc(c2)O1 [Compound 157, (1^1S,1^3R,6S,Z)-6-methyl-2^1H-5,12-dioxa-3,10-diaza-2(3,5)-pyrazola-4(1,3)-benzena-1(1,3)-cyclopentanacyclododecaphan-11-one] | 250 to 1250 | 
2 to 10 | 10 to 50 |  |  |  |  |  |  |  |  |  | 50 to 100 | C (C, >50 and ≤100) | 10 to 50 | E (E, <20) | 10 to 50 | D (D, >20 and ≤50) | ≤ 10 | 10 to 50 | C[C@H]1CCCC(F)(F)c2cc(ccn2)Nc2cc(n[nH]2)[C@H]2CC[C@H](C2)OC(=O)N1 [Compound 166, (1^1S,1^3R,9S,Z)-5,5-difluoro-9-methyl-2^1H-12-oxa-3,10-diaza-4(4,2)-pyridina-2(3,5)-pyrazola-1(1,3)-cyclopentanacyclododecaphan-11-one] | 250 to 1250 | IC50 (CDK4-CYCLIN D1; Table 31): 100 to 500 nM; CDK2 Fold selectivity, CDK4 (CDK4-CYCLIN D1; Table 32): D (D, >20 and ≤50); IC50 (CDK1-CYCLIN B; Table 31): 10 to 50 nM; CDK2 Fold selectivity, CDK1 (CDK1-CYCLIN B; Table 32): E (E, <20); IC50 (CDK6-CYCLIN D3; Table 31): 100 to 500 nM; CDK2 Fold selectivity, CDK6 (CDK6-CYCLIN D3; Table 32): D (D, >20 and ≤50); IC50 (CDK2-CYCLIN E1; Table 31): ≤ 10 nM; IC50 (CDK9-CYCLIN T1; Table 31): 10 to 50 nM; CDK2 Fold selectivity, CDK9 (CDK9-CYCLIN T1; Table 26): D (D, >20 and ≤50); CDK2 Fold selectivity, CDK9 (CDK9-CYCLIN T1; Table 32): E (E, <20)
